Patent publication US5719278A, “Tricyclic benzazepine vasopressin antagonists” (American Cyanamid Company, priority 1996, dated 1998)

Tests used:
[1] = target: T1, Rat Kidney Medullary V2 Receptors (Rattus norvegicus, UniProt Q00788); experiment: Binding Assay to Rat Kidney Medullary V2 Receptors; conditions: Rat Kidney Medullary V2 Receptors (no asterisk)
T1 construct: Medullary tissues from rat kidneys are dissected out; from tissue; host or cells: rat kidney medulla membranes
Experimental: Binding Assay to Rat Kidney Medullary V2 Receptors
Medullary tissues from rat kidneys are dissected out, cut into small pieces and let soak in a […] sodium chloride solution containing 1.0 mM EDTA with many changes of the liquid phase, until the solution is clear of blood. The tissue is homogenized in a 0.25M sucrose solution containing 1.0 mM EDTA and 0.1 mM PMSF using a Potter-Elvehjem homogenizer with a teflon pestle. The homogenate is filtered through several layers (4 layers) of cheese cloth. The filtrate is rehomogenized using a dounce homogenizer, with a tight fitting pestle. The final homogenate is contrifuged at 1500×g for 15 min. The nuclear pellet is discarded and the supernatant fluid recentrifuged at 40,000×g for 30 min. The resulting pellet formed contains a dark inner part with the exterior, slightly pink. The pink outer part is suspended in a small amount of 50.0 mM Tris.HCl buffer, pH 7.4. The protein content is determined by the Lowry's method (Lowry et al, J. Biol. Chem., 1953). The membrane suspension is stored at -70° C., in 50.0 mM Tris.HCl, containing 0.2% inactivated BSA and 0.1 mM PMSF in aliquots of 1.0 ml containing 10.0 mg protein per ml of suspension until use in subsequent binding experiments.
For binding experiments, the following is added in μl volume to wells of a 96 well format of a microtiter plate: 100.0 μl of 100.0 mM Tris.HCl buffer containing 0.2% heat inactivated BSA, 10.0 mM MgCl2 and a mixture of protease inhibitors: leupeptin, 1.0 mg %; aprotinin, 1.0 mg %; 1,10-phenanthroline, 2.0 mg %; trypsin inhibitor, 10.0 mg % and 0.1 mM PMSF, 20.0 μl of [^3 H]Arginine^8, vasopressin (S.A. 75.0 Ci/mmole) at 0.8 nM and the reaction initiated by the addition of 80.0 μl of tissue membranes (200.0 μg tissue protein). The plates are left undisturbed on the bench top for 120 min. to reach equilibrium. Non-specific binding is assessed in the presence of 1.0 μM of unlabeled ligand, added in 20 μl volume. For test compounds, these are solubilized in 50% dimethylsulfoxide (DMSO) and added in 20.0 μl volume to a final incubation volume of 200 μl. Upon completion of binding, the content of each well is filtered off, using a Brandel® cell Harvester (Gaithersburg, Md.). The radioactivity trapped on the filter disk by the ligand-receptor complex is assessed by liquid scintillation counting in a Packard LS Counter, with an efficiency of 65% for tritium. The data are analyzed for IC50 values by the LUNDON-2 program for competition (LUNDON SOFTWARE, Ohio).

Vasopressin V2 = Vasopressin V2 Antagonist Activity in Conscious Hydrated Rats; type: in vivo, rat; conditions: 10 mg/kg orally, N = 2, AVP 0.4 μg/kg intraperitoneally; for Osmolality (mOsm/kg): urine
Experimental: Vasopressin V2 Antagonist Activity in Conscious Hyrdated Rats
Conscious hydrated rats are treated with compounds under study from 0.1 to 100 mg/kg orally or vehicle. Two to four rats are used for each compound. One hour later, arginine vasopressin (AVP, antidiuretic hormone, ADH) dissolved in peanut oil is administered at 0.4 μg/kg intraperitoneally. Two rats in each test would not receive arginine vasopressin but only the vehicle (peanut oil) to serve as water-loading control. Twenty minutes later each rat is given 30 mL/kg of deionized water orally by gavage and is placed individually in a metabolic cage equipped with a funnel and a graduated glass cylinder to collect urine for four hours. Urine volume is measured and osmolality analyzed by use of a Fiske One-Ten osmometer (Fiske Assoc., Norwood, Mass. U.S.A.). Urinary sodium, potassium, and chloride are analyzed by use of ion-specific electrodes in a Beckman E3(Electrolyte 3) Analyzer.
In the following results, […] and decreased osmolality relative to AVP-control indicates activity.

T1 sequence (Q00788 whole entry): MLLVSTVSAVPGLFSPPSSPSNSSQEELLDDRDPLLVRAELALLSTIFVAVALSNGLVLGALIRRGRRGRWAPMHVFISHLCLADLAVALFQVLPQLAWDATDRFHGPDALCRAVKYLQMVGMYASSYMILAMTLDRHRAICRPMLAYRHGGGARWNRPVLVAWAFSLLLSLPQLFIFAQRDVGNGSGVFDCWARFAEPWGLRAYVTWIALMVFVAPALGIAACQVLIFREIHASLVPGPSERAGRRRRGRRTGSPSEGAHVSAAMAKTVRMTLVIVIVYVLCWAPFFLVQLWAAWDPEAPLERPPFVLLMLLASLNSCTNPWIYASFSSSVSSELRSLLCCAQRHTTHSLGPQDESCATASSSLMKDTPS

| IC50 [1] [µM] | Structure (SMILES) | Urine Vol. (ml/4 hrs.) (Vasopressin V2) | Osmolality (mOsm/kg) (Vasopressin V2) |
| --- | --- | --- | --- |
| 0.34 | O=C(Nc1ccc(C(=O)N2CCc3cn[nH]c3-c3sccc32)cc1)c1ccc(F)cc1Cl [Example 1, N-[4-[(4,5-Dihydropyrazolo[3,4-d]thieno[3,2-b]azepin-6(1H)-yl)carbonyl]phenyl]-2-chloro-4-fluorobenzamide] | 15.3 | 535 |
| 0.0016 | O=C(Nc1ccc(C(=O)N2CCc3cn[nH]c3-c3ncccc32)cc1)c1ccccc1-c1ccccc1 [Example 365, N-[4-[(4,5-Dihydropyrazolo[3,4-d]pyrido[3,2-b]azepin-6(1H)-yl)carbonyl]phenyl][1,1'-biphenyl]-2-carboxamide] | 2.6 | 251 |
| 0.03 | Cc1ccc(F)cc1C(=O)Nc1ccc(C(=O)N2CCc3c[nH]nc3-c3ncccc32)cc1 [Example 367, N-[4-[4(4,5-Dihydropyrazolo[3,4-d]pyrido[3,2-b]azepin-6(1H)-yl)carbonyl]phenyl]-5-fluoro-2-methylbenzamide] | 10 | 627 |
